Experimental data from the supplement of paper PMC13380429.

Legend:
Conditions in all cases: 72 h
HepG2 [1] = test: drug sensitivity score (DSS) for viability; higher = more toxic; extreme values may be limits of the assay
Vero E6 [2] = test: as above
Calu-3 [3] = test: as above
U2OS [4] = test: as above
Caco-2 [5] = test: as above
HepG2 [6] = test: cell viability relative to DMSO; higher = less toxic
Vero E6 [7] = test: as above
Calu-3 [8] = test: as above
U2OS [9] = test: as above
Caco-2 [10] = test: as above
HepG2 [11] = test: relative viability EC50 (midpoint between 100% and the lowest measured viability); higher = less toxic
Vero E6 [12] = test: as above
Calu-3 [13] = test: as above
U2OS [14] = test: as above
Caco-2 [15] = test: as above

Row | SMILES | drug sensitivity score (HepG2 [1]) | drug sensitivity score (Vero E6 [2]) | drug sensitivity score (Calu-3 [3]) | drug sensitivity score (U2OS [4]) | drug sensitivity score (Caco-2 [5]) | cell viability (HepG2 [6]; 1 nM) [%] | cell viability (HepG2 [6]; 10 nM) [%] | cell viability (HepG2 [6]; 100 nM) [%] | cell viability (HepG2 [6]; 1000 nM) [%] | cell viability (HepG2 [6]; 10000 nM) [%] | cell viability (Vero E6 [7]; 1 nM) [%] | cell viability (Vero E6 [7]; 10 nM) [%] | cell viability (Vero E6 [7]; 100 nM) [%] | cell viability (Vero E6 [7]; 1000 nM) [%] | cell viability (Vero E6 [7]; 10000 nM) [%] | cell viability (Calu-3 [8]; 1 nM) [%] | cell viability (Calu-3 [8]; 10 nM) [%] | cell viability (Calu-3 [8]; 100 nM) [%] | cell viability (Calu-3 [8]; 1000 nM) [%] | cell viability (Calu-3 [8]; 10000 nM) [%] | cell viability (U2OS [9]; 1 nM) [%] | cell viability (U2OS [9]; 10 nM) [%] | cell viability (U2OS [9]; 100 nM) [%] | cell viability (U2OS [9]; 1000 nM) [%] | cell viability (U2OS [9]; 10000 nM) [%] | cell viability (Caco-2 [10]; 1 nM) [%] | cell viability (Caco-2 [10]; 10 nM) [%] | cell viability (Caco-2 [10]; 100 nM) [%] | cell viability (Caco-2 [10]; 1000 nM) [%] | cell viability (Caco-2 [10]; 10000 nM) [%] | relative viability EC50 (HepG2 [11]) [µM] | relative viability EC50 (Vero E6 [12]) [µM] | relative viability EC50 (Calu-3 [13]) [µM] | relative viability EC50 (U2OS [14]) [µM] | relative viability EC50 (Caco-2 [15]) [µM]
1 | N[C@H]1C(O)O[C@H](CO)[C@@H](O)[C@@H]1O (mixture of isomers) [glucosamine] | 0 | 0 | 0 | 0 | 0 | 112 | 106 | 109 | 100 | 112 | 108 | 103 | 101 | 97.7 | 105 | 101 | 107 | 97.2 | 101 | 105 | 97.6 | 99.9 | 94.2 | 96.4 | 95.7 | 88.8 | 91.8 | 95 | 96.6 | 100 | > 10 | > 10 | > 10 | > 10 | > 10
2 | Oc1ccc(Cl)c2c1CCC2 [chlorindanol] | 0.3 | 0 | 0 | 0 | 0 | 110 | 89.5 | 97.9 | 95.2 | 84.1 | 99.5 | 100 | 103 | 96.4 | 103 | 99.8 | 118 | 107 | 109 | 96.9 | 101 | 98.8 | 97.1 | 107 | 98.9 | 115 | 93.9 | 84.6 | 105 | 99.5 | > 10 | > 10 | > 10 | > 10 | > 10
3 | Brc1ccc(NC2C3CC4CC(C3)CC2C4)cc1 (stereo not given) [bromantan] | 0 | 0 | 0 | 0 | 0 | 105 | 100 | 92 | 106 | 94.3 | 101 | 100 | 99.5 | 108 | 98.8 | 89.6 | 90.6 | 98.3 | 102 | 87.9 | 102 | 99.6 | 101 | 96.9 | 101 | 104 | 95.9 | 104 | 99.9 | 92.8 | > 10 | > 10 | > 10 | > 10 | > 10
4 | CC(O)Cn1cnc2c1c(=O)n(C)c(=O)n2C (stereo not given) [Proxyphylline] | 0 | 0 | 0 | 0 | 0 | 106 | 102 | 98.7 | 111 | 103 | 90.1 | 99.1 | 87 | 90.8 | 108 | 92.5 | 100 | 106 | 99.3 | 104 | 98.9 | 92.8 | 95.1 | 93.6 | 104 | 102 | 93.9 | 99.9 | 101 | 94.6 | > 10 | > 10 | > 10 | > 10 | > 10
5 | COc1cc(Cc2cnc(N)nc2N)c(C(C)C)cc1OC [Ro-3] | 0 | 0 | 0 | 0 | 0 | 99.2 | 92.3 | 93.5 | 101 | 103 | 90.6 | 95.7 | 96.5 | 94.9 | 103 | 98.1 | 87.8 | 98 | 101 | 103 | 97.8 | 99.7 | 95 | 102 | 102 | 94.9 | 90.5 | 97.3 | 101 | 102 | > 10 | > 10 | > 10 | > 10 | > 10
6 | COCC1=C(C(=O)O)N2C(=O)[C@@H](NC(=O)/C(=N\OC)c3csc(N)n3)[C@H]2SC1 [cefpodoxime] | 0 | 0 | 0 | 0 | 0 | 106 | 103 | 108 | 101 | 96.1 | 99.7 | 98.1 | 99.2 | 97.5 | 99.4 | 98 | 105 | 96.8 | 99.4 | 103 | 104 | 99.6 | 105 | 102 | 101 | 106 | 112 | 97.5 | 91.4 | 105 | > 10 | > 10 | > 10 | > 10 | > 10
7 | CC(C)NCC(O)COc1cccc2[nH]c3ccccc3c12 (stereo not given) [carazolol] | 0 | 0 | 0 | 0 | 0 | 85.6 | 99 | 98.6 | 101 | 104 | 98 | 99.1 | 90.1 | 100 | 99.3 | 102 | 101 | 90.9 | 95.7 | 106 | 103 | 96.3 | 102 | 97.8 | 99.7 | 97.4 | 89.7 | 104 | 98.1 | 105 | > 10 | > 10 | > 10 | > 10 | > 10
8 | CC1(C)OC[C@H](NC(=O)Nc2ccc(Br)cc2Br)[C@H](c2ccccc2)O1 | 0 | 0 | 0 | 0 | 0.1 | 95.4 | 89.8 | 93.6 | 91.1 | 95.5 | 102 | 101 | 101 | 93.9 | 95.7 | 99.1 | 89.6 | 111 | 103 | 92.8 | 93.3 | 98 | 96.6 | 98.5 | 89.6 | 94.5 | 98.8 | 95.3 | 103 | 85.8 | > 10 | > 10 | > 10 | > 10 | > 10
9 | CNC(=O)c1ccc2c(c1)CCO[C@H]2CCN1CCN(c2ccc(C(N)=O)cc2)CC1 | 0 | 0 | 0 | 0 | 0 | 103 | 104 | 95.2 | 98.9 | 99.6 | 105 | 102 | 104 | 99.1 | 107 | 99.7 | 81.1 | 95.2 | 107 | 100 | 99.5 | 106 | 100 | 103 | 101 | 94.9 | 105 | 91.9 | 102 | 97.1 | > 10 | > 10 | > 10 | > 10 | > 10
10 | Cc1cc2c(C(C)C)c(O)c(O)c(C=O)c2c(O)c1-c1c(C)cc2c(C(C)C)c(O)c(O)c(C=O)c2c1O [gossypol] | 5.6 | 5 | 3.2 | 5.5 | 7 | 102 | 96.3 | 95.3 | 96.1 | 9.6 | 100 | 98.1 | 97.6 | 98.6 | 13.1 | 100 | 100 | 103 | 103 | 36.9 | 96.8 | 101 | 98.6 | 95.9 | 11.9 | 101 | 104 | 107 | 90.9 | 0.8 | 2.84 | 3.05 | 3.4 | 2.81 | 2.41
11 | O=S1(=O)OC(c2ccc(O)cc2)(c2ccc(O)cc2)c2ccccc21 [phenolsulfonphthalein] | 0 | 0 | 0 | 0 | 0.1 | 99.3 | 94.5 | 99.3 | 99.6 | 93.5 | 105 | 102 | 100 | 93.8 | 100 | 108 | 104 | 83.5 | 110 | 93.2 | 99.5 | 104 | 98 | 103 | 96.4 | 102 | 108 | 96.1 | 93.7 | 87.9 | > 10 | > 10 | > 10 | > 10 | > 10
12 | OC[C@@H](O)[C@@H](O)[C@@H](O)CO [ribitol] | 0 | 0 | 0 | 0 | 0 | 101 | 90.9 | 111 | 100 | 105 | 93.7 | 100 | 97.8 | 99.2 | 101 | 102 | 93 | 98.1 | 96.6 | 98 | 98.9 | 96.2 | 97.4 | 93 | 102 | 100 | 97 | 104 | 102 | 103 | > 10 | > 10 | > 10 | > 10 | > 10
13 | CNS(=O)(=O)CCc1ccc2[nH]cc(C3CCN(C)CC3)c2c1 [naratriptan] | 0 | 0 | 0 | 0 | 0 | 102 | 98.2 | 105 | 103 | 108 | 98.9 | 100 | 91.9 | 99.7 | 96.7 | 114 | 94.1 | 94.7 | 97 | 107 | 102 | 106 | 99.2 | 99.8 | 95.9 | 97.5 | 105 | 92.7 | 100 | 105 | > 10 | > 10 | > 10 | > 10 | > 10
14 | CCCN(CCC)C(=O)C1=Cc2ccc(-c3ccc(C(=O)N4CCCC4)cc3)cc2N=C(N)C1 [motolimod] | 2.5 | 0 | 0 | 0 | 0 | 107 | 113 | 89.7 | 114 | 40.6 | 102 | 102 | 98.1 | 99.2 | 91.6 | 121 | 103 | 112 | 112 | 98.1 | 106 | 101 | 99.6 | 98.1 | 92 | 102 | 106 | 124 | 109 | 100 | 4 | > 10 | > 10 | > 10 | > 10
